According to the supplement of paper PMC10307832:

Key:
Assay in all cases: relative viability (nuclei count vs DMSO), 5 days (fraction); higher = more cells survive
Ibrutinib + Lapatinib = compound: C=CC(=O)N1CCC[C@@H](n2nc(-c3ccc(Oc4ccccc4)cc3)c3c(N)ncnc32)C1 [Ibrutinib] + CS(=O)(=O)CCNCc1ccc(-c2ccc3ncnc(Nc4ccc(OCc5cccc(F)c5)c(Cl)c4)c3c2)o1 [Lapatinib] (partner 2 µM)
Procedure, shortened: (§1)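 Relative viability divides the nuclei count in treated wells by that in vehicle wells. Lung cancer cell lines were seeded in 1536-well plates, dosed by pin tool the next day, and fixed and stained after 5 days in one step with final 0.05% Triton X-100, 1% formaldehyde and 1 ug/ml Hoechst. Dosing was a single drug or a fixed anchor-drug dose plus five library-drug doses (not always all listed) in √10 steps, and values are medians of duplicate plates imaged at 4×.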

PAC-1 + OSI-027 = compound: C=CCc1cccc(/C=N/NC(=O)CN2CCN(Cc3ccccc3)CC2)c1O [PAC-1] + COc1cccc2cc(-c3nc([C@H]4CC[C@H](C(=O)O)CC4)n4ncnc(N)c34)[nH]c12 [OSI-027] (partner 0.5 µM)
Procedure, shortened: as §1

Ibrutinib + Luminespib = compound: C=CC(=O)N1CCC[C@@H](n2nc(-c3ccc(Oc4ccccc4)cc3)c3c(N)ncnc32)C1 [Ibrutinib] + CCNC(=O)c1noc(-c2cc(C(C)C)c(O)cc2O)c1-c1ccc(CN2CCOCC2)cc1 [Luminespib] (partner 0.01 µM)
Procedure, shortened: as §1

BMX-IN-1 + Navitoclax = compound: C=CC(=O)Nc1cc(-n2c(=O)ccc3cnc4ccc(-c5ccc(NS(C)(=O)=O)cc5)cc4c32)ccc1C [BMX-IN-1] + CC1(C)CCC(c2ccc(Cl)cc2)=C(CN2CCN(c3ccc(C(=O)NS(=O)(=O)c4ccc(N[C@H](CCN5CCOCC5)CSc5ccccc5)c(S(=O)(=O)C(F)(F)F)c4)cc3)CC2)C1 [Navitoclax] (partner 0.5 µM)
Procedure, shortened: as §1

| Cell Line | relative viability (Ibrutinib + Lapatinib; first compound 0.005 µM) | relative viability (Ibrutinib + Lapatinib; first compound 0.01581 µM) | relative viability (Ibrutinib + Lapatinib; first compound 0.05 µM) | relative viability (Ibrutinib + Lapatinib; first compound 0.1581 µM) | relative viability (Ibrutinib + Lapatinib; first compound 0.5 µM) | relative viability (PAC-1 + OSI-027; first compound 0.02 µM) | relative viability (PAC-1 + OSI-027; first compound 0.06325 µM) | relative viability (PAC-1 + OSI-027; first compound 0.2 µM) | relative viability (PAC-1 + OSI-027; first compound 2 µM) | relative viability (Ibrutinib + Luminespib; first compound 0.01581 µM) | relative viability (Ibrutinib + Luminespib; first compound 0.05 µM) | relative viability (Ibrutinib + Luminespib; first compound 0.1581 µM) | relative viability (Ibrutinib + Luminespib; first compound 0.5 µM) | relative viability (BMX-IN-1 + Navitoclax; first compound 0.02 µM) | relative viability (BMX-IN-1 + Navitoclax; first compound 0.2 µM) | relative viability (BMX-IN-1 + Navitoclax; first compound 0.6325 µM) | relative viability (BMX-IN-1 + Navitoclax; first compound 2 µM) | relative viability (Ibrutinib + Luminespib; first compound 0.005 µM) |
| --- | --- | --- | --- | --- | --- | --- | --- | --- | --- | --- | --- | --- | --- | --- | --- | --- | --- | --- |
| NCI-H596 | 1.86 | 1.1 | 1.02 | 0.988 | 1.08 | 0.733 | 0.745 | 0.695 | 0.719 | 0.894 | 0.77 | 0.959 | 0.805 | 0.906 | 1.08 | 1.07 | 0.816 |  |
| A-427 | 1.01 | 1.01 | 1.06 | 0.982 | 1.01 | 0.434 | 0.481 | 0.47 | 0.476 | 0.85 | 0.832 | 1.1 | 1.01 | 1.04 | 0.987 | 0.971 | 1.01 | 1.09 |
| HCC-44 | 1.09 | 0.948 | 1.02 | 1.08 | 1.02 | 0.486 | 0.62 | 0.607 | 0.585 | 1.02 | 0.977 |  | 1.16 | 1.25 | 1.16 | 1.13 | 0.989 | 1.11 |
| HCC-827 | 0.169 | 0.206 | 0.208 | 0.174 | 0.173 | 0.763 | 0.692 | 0.703 | 0.792 | 0.355 | 0.589 | 0.673 | 0.212 | 1.02 | 0.992 | 1 | 1.03 | 0.657 |
| NCI-H1915 |  | 0.987 | 1.01 | 1.06 | 1.06 | 0.603 | 0.621 | 0.592 | 0.586 | 0.85 | 0.819 | 0.857 | 0.69 | 0.808 | 0.793 | 0.764 | 0.777 | 0.824 |
| NCI-H322M | 0.527 | 0.652 | 0.621 | 0.512 | 0.585 | 0.547 | 0.586 | 0.543 | 0.505 | 0.726 | 0.785 | 0.752 | 0.473 | 0.848 | 1.18 | 1.24 | 1.16 | 0.648 |
| EKVX | 0.178 | 0.215 | 0.216 | 0.191 | 0.179 | 0.744 | 0.674 | 0.696 | 0.702 | 0.784 | 0.856 | 0.81 | 0.547 | 0.979 | 1.13 | 0.966 | 1 | 0.66 |
| EMC-BAC-2 | 0.827 | 0.864 | 0.858 | 0.909 | 0.899 | 0.367 | 0.363 | 0.371 | 0.382 | 1.14 | 1.25 | 1.15 | 1.05 | 1.41 | 1.35 | 1.08 | 1.19 | 1.15 |
| HCC-15 | 1.01 | 0.819 | 0.877 | 0.835 | 0.865 | 0.668 | 0.726 | 0.672 | 0.684 | 0.278 | 0.488 | 0.308 | 0.243 | 0.768 | 0.726 | 0.706 | 0.73 | 0.362 |
| LXF-289 | 0.918 | 0.903 | 0.932 | 0.88 | 0.923 | 0.764 | 0.835 | 0.739 | 0.789 | 0.673 | 0.722 | 0.692 | 0.643 | 0.954 | 1.06 | 1.03 | 1.01 | 0.685 |
| NCI-H1395 | 1.1 | 1.04 | 1.04 | 0.869 | 1.05 | 0.66 | 0.603 | 0.667 | 0.54 | 0.739 | 1.15 | 0.788 | 0.702 | 0.972 | 1.09 | 1.07 | 1.14 | 0.488 |
| NCI-H838 | 0.796 | 0.893 | 1 | 0.894 | 1.08 | 0.359 | 0.386 | 0.373 | 0.398 |  | 0.266 | 0.326 | 0.325 | 1.39 | 1.33 | 1.21 | 1.18 | 0.288 |
| NCI-H520 | 0.788 | 0.789 | 0.934 | 0.907 | 0.78 | 0.299 | 0.275 | 0.265 | 0.259 | 0.237 | 0.247 | 0.232 | 0.269 | 1.35 | 1.4 | 1.16 | 1.03 | 0.252 |
| SW 1573 | 1.01 | 1.22 | 1.3 | 1 | 1.22 | 0.642 | 0.613 | 0.606 | 0.791 | 0.382 | 0.198 | 0.288 | 0.582 | 1.22 | 1.39 | 1.21 | 0.808 | 0.419 |
| 201T | 1.04 | 0.983 | 1.08 | 0.968 | 1.02 | 0.702 | 0.754 | 0.848 | 0.839 | 1.02 | 1.07 | 1.05 | 0.953 | 1.14 | 1.21 | 1.18 | 1.2 | 1.03 |
| NCI-H1437 | 0.799 | 0.677 | 0.775 | 0.604 | 0.893 | 0.893 | 0.867 | 0.82 | 0.762 | 1.16 | 1.11 | 1.14 | 1.12 | 1.3 | 1.33 | 1.07 | 1.18 | 1.13 |
| NCI-H1975 | 0.899 | 0.772 | 0.837 | 0.79 | 0.517 | 0.826 | 0.62 | 0.704 | 0.842 | 0.183 | 0.212 | 0.254 | 0.138 | 1.34 | 1.19 | 1.34 | 1 | 0.162 |
| RERF-LC-KJ | 0.831 | 0.931 | 0.937 | 0.888 | 0.785 | 0.5 | 0.548 | 0.59 | 0.463 | 1.12 | 1.26 | 1.14 | 1.16 | 0.821 | 0.994 | 1.3 | 0.749 | 1.24 |
